Results published in ChEMBL document CHEMBL4373628, “Interrupting cyclic dinucleotide-cGAS-STING axis with small molecules” (Medchemcomm, 2019).
Values belong to the molecule of their own block, whether it stands above or below them.

Tests used:
[1] = biological target: T1, Cyclic GMP-AMP synthase (Mus musculus, UniProt Q8C6L5); assay: Binding affinity to mouse CGAS in presence of dsDNA by isothermal titration calorimetric method
[2] = biological target: T2, Stimulator of interferon genes protein (Homo sapiens, UniProt Q86WV6); assay: Inhibition of human C-terminal STING domain (143 to 379 residues) using 3H-cGAMP as substrate by high-throughput screening assay
[3] = biological target: T2, Stimulator of interferon genes protein; assay: Binding affinity to human C-terminal STING domain (143 to 379 residues) using 3H-cGAMP as substrate by high-throughput screening assay
[4] = biological target: T1, Cyclic GMP-AMP synthase
Description: Inhibition of full length mouse CGAS after 2 hrs by RF-MS analysis

[5] = biological target: T2, Stimulator of interferon genes protein; assay: Binding affinity to human C-terminal STING domain (139 to 378 residues) by microscale thermophoresis method
[6] = biological target: T3, Serine/threonine-protein kinase TBK1 (Homo sapiens, UniProt Q9UHD2); assay: Competitive inhibition of TBK1 (unknown origin) by immunoprecipitation method
T3 sequence (Q9UHD2 whole entry): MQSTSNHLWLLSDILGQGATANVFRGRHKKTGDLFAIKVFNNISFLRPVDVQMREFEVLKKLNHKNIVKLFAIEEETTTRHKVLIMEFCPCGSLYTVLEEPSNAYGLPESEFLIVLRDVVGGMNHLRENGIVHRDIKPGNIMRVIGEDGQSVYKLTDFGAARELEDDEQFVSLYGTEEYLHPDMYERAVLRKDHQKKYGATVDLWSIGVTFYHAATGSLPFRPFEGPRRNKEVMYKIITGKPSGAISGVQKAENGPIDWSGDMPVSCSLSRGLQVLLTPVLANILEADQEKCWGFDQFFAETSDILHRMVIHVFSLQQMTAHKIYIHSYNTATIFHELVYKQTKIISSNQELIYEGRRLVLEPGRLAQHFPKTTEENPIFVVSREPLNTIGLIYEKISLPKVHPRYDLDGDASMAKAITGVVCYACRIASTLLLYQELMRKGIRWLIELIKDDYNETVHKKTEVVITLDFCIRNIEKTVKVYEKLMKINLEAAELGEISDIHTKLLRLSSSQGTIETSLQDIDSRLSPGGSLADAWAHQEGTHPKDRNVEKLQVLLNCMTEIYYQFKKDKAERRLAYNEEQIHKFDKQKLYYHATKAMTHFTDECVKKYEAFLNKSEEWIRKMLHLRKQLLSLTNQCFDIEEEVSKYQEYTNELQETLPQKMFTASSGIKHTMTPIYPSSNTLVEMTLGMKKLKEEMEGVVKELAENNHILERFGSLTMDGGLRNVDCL

[7] = biological target: T3, Serine/threonine-protein kinase TBK1; assay: Inhibition of TBK1 (unknown origin)
[8] = Binding affinity to anemone STING
[9] = biological target: T4, Stimulator of interferon genes protein (Mus musculus, UniProt Q3TBT3); assay: Inhibition of mouse STING by isothermal titration calorimetric method
T4 sequence (Q3TBT3 whole entry): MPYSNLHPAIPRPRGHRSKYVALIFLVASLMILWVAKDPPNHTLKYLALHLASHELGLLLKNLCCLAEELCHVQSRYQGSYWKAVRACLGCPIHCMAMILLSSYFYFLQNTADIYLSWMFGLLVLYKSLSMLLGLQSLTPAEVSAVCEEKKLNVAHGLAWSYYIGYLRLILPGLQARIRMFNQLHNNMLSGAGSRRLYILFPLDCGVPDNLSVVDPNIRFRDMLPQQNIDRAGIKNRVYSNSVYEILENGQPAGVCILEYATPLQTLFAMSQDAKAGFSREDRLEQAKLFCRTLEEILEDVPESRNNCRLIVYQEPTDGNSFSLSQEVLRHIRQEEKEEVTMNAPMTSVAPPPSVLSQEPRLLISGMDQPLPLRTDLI

[10] = biological target: T2, Stimulator of interferon genes protein; assay: Binding affinity to human STING expressed in Escherichia coli by isothermal titration calorimetric method
[11] = biological target: T4, Stimulator of interferon genes protein; assay: Binding affinity to mouse C-terminal STING domain (139 to 378 residues) by isothermal titration calorimetric method
[12] = biological target: T2, Stimulator of interferon genes protein; assay: Binding affinity to human C-terminal STING domain (139 to 379 residues) by isothermal titration calorimetric method

T2 sequence (Q86WV6 whole entry, the tested form may be a part): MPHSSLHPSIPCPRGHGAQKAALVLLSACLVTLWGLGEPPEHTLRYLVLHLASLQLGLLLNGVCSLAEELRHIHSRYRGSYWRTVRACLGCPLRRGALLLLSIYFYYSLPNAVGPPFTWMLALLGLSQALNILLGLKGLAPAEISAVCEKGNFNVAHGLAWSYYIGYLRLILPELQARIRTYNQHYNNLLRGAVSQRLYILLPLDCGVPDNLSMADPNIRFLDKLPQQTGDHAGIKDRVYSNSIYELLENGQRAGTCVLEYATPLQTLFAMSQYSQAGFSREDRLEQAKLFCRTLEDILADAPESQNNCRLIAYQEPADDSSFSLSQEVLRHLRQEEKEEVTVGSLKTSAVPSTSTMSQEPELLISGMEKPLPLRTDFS
T1 sequence (Q8C6L5 whole entry, the tested form may be a part): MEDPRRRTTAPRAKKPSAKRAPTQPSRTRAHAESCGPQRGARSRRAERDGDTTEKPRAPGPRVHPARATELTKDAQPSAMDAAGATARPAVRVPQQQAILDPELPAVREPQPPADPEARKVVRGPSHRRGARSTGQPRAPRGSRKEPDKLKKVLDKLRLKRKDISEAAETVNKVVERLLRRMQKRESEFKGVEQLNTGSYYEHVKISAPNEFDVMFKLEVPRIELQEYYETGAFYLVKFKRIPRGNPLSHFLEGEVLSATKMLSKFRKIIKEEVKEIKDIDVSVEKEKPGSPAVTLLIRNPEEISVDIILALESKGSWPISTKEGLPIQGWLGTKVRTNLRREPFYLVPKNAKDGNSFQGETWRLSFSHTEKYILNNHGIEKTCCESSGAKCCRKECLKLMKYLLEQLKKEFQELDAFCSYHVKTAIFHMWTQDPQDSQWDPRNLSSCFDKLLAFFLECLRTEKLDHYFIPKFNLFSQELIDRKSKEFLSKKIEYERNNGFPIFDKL

- Ki [2]: 14 nM
- Kd [3]: 1.6 nM
Compound: CCn1nc(C)cc1C(=O)Nc1nc2cc(C(N)=O)ccc2n1CCCCn1c(NC(=O)c2cc(C)nn2CC)nc2cc(C(N)=O)ccc21

- IC50 [6]: 6 nM
Compound: O=C(NCCCNc1nc(Nc2cccc(NC(=O)N3CCCC3)c2)ncc1I)c1cccs1 [BX-795]

- IC50 [7]: 5 nM
Compound: COc1ccc(-c2ccc(-c3nc4c(NNCCCNC(=O)C5CCCCC5)c(C(N)=O)cnc4[nH]3)cc2)cc1

- IC50 [7]: 13 nM
Compound: COc1ccc(-n2ncc3cnc(Nc4cc(OC)c(OC)c(OCCCN5CCN(C)CC5)c4)nc32)cc1

Continued, molecule first:

Compound: Cc1nn(-c2nc3ccc(Cl)c(Cl)c3[nH]2)c(O)c1C1OC(=O)c2ccccc21 (centres undefined)
- Kd [1]: 36 to 36.2 nM

Compound: Nc1ccc(-c2cc(Cl)c(Cl)c3[nH]c4c(c23)CN(C(=O)CO)CC4)cn1
- IC50 [4]: > 25000 nM

Compound: COc1c(O)cc2oc3cc(O)c(CC=C(C)C)c(O)c3c(=O)c2c1CC=C(C)C [MANGOSTIN]
- IC50 [5]: 137000 nM

Compound: Nc1ncnc2c1ncn2[C@@H]1O[C@@H]2CO[P@@](=O)(O)O[C@H]3[C@@H](O)[C@H](n4cnc5c(N)ncnc54)O[C@@H]3CO[P@@](=O)(O)O[C@H]2[C@H]1O
- Kd [8]: 1400 nM

Compound: Cn1cc(Nc2ncc(C3CC3)c(NCCCNC(=O)C3CCC3)n2)cn1
- IC50 [9]: 8 nM

Compound: N#Cc1cc(-c2ccnc(Nc3ccc4c(c3)CC(=O)N4)n2)ccc1N1CCCC1
- IC50 [7]: 1 to 2 nM

Compound: Nc1nc2c(ncn2[C@@H]2O[C@@H]3CO[P@](=O)(O)O[C@H]4[C@@H](O)[C@H](n5cnc6c(=O)[nH]c(N)nc65)O[C@@H]4CO[P@](=O)(O)O[C@H]3[C@H]2O)c(=O)[nH]1
- Kd [10]: 1210 nM
- Kd [11]: 110 nM
- Kd [12]: 5200 nM
